From patent US20260234136A1, “ISOXAZOLIDINES AS RIPK1 INHIBITORS AND USE THEREOF” (GENZYME CORPORATION, priority 2023, published 2026)
Converted amounts (≈) assume the structure as drawn.

Assays:
U937 cells = assay: Cellular assay in U937 cells to measure the activity of RIPK1-inhibitors on cell death (necroptosis); type: cell-based; conditions: Homo sapiens, U-937, 50 μM zVAD.fmk and 100 ng/ml recombinant human TNFα, overnight (18 to 24 hrs), MTS readout
Experimental: Absorbance of formazan was read at 490 nm. The inhibitory activity of the test compound was quantified in a concentration response curve (CRC) experiment.
Compounds were obtained as 10 mM stock solutions and were diluted 1 to 10 volumes with DMSO to yield a 1 mM solution. From this solution 2 μl were diluted with 998 μl growth medium.
U937 cells were cultured in RPMI1640 Glutamax and 10% heat inactivated FBS. […] 50 μl of compound dilutions, as described in Cellular assay in U937 cells, were added and the cell suspension incubated overnight (18 to 24 hrs) at 37° C., 5% CO2 in a humidified atmosphere (95% rH).
CellTiter 96 Aqueous reagent was mixed (100 μl PMS (phenazine methosulfate) solution/2 ml MTS (3-(4,5-[…])-5-(3-carboxymethoxyphenyl)-2-(4-sulfophenyl)-2H-tetrazolium, inner salt) solution) and 20 μl were added per well. After 4 hrs incubation at 37° C. (5% CO2 95% rH) optical density was measured at 490 nm on a microplate reader (Tecan Infinite M1000).
The % inhibition is expressed as percentage of the maximal inhibition value obtained in the absence of TNFα/zVAD.fmc.

physchem = conditions: 50 mM phosphate buffer, 25 °C, pH 7.4, aqueous buffer, thermodynamic from solid

Row | solubility at 16 h (physchem) [µM] | Structure (SMILES) | IC50 (U937 cells) [nM]
1 | > 1190 | Cc1nccn1-c1ccnc(N2CCC(C(=O)N3OCC[C@H]3c3cnccn3)CC2)n1 [Example 30, (S)-(1-(4-(2-methyl-1H-imidazol-1-yl)pyrimidin-2-yl)piperidin-4-yl)(3-(pyrazin-2-yl)isoxazolidin-2-yl)methanone] | 3
2 | > 1190 | Cc1nccn1-c1cc(N2CCC(C(=O)N3OCC[C@H]3c3cnccn3)CC2)ncn1 [Example 31, (S)-(1-(6-(2-methyl-1H-imidazol-1-yl)pyrimidin-4-yl)piperidin-4-yl)(3-(pyrazin-2-yl)isoxazolidin-2-yl)methanone] | 32
3 | 34.7 (≈ 14.6 µg/mL) | Cc1ccc([C@@H]2CCON2C(=O)C2CCN(c3nccc(-c4ncco4)n3)CC2)cn1 [Example 37, [(3S)-3-(6-methylpyridin-3-yl)-1,2-oxazolidin-2-yl]-[1-[4-(1,3-oxazol-2-yl)pyrimidin-2-yl]piperidin-4-yl]methanone] | 41
4 | 275 (≈ 120 µg/mL) | Cc1ccc([C@@H]2CCON2C(=O)C2CCN(c3ncnc(-c4nccs4)n3)CC2)cn1 [Example 38, [(3S)-3-(6-methylpyridin-3-yl)-1,2-oxazolidin-2-yl]-[1-[4-(1,3-thiazol-2-yl)-1,3,5-triazin-2-yl]piperidin-4-yl]methanone] | 51
5 | 136 (≈ 60 µg/mL) | Cc1nc([C@@H]2CCON2C(=O)C2CCN(c3cc(-c4ncnn4C)ncn3)CC2)cs1 [Example 40, [(3S)-3-(2-methyl-1,3-thiazol-4-yl)-1,2-oxazolidin-2-yl]-[1-[6-(2-methyl-1,2,4-triazol-3-yl)pyrimidin-4-yl]piperidin-4-yl]methanone] | 40
6 | 904 (≈ 409 µg/mL) | Cc1ncc([C@@H]2CCON2C(=O)C2CCN(c3ncnc(-c4ccnn4C)n3)CC2)cc1F [Example 45, [(3S)-3-(5-fluoro-6-methylpyridin-3-yl)-1,2-oxazolidin-2-yl]-[1-[4-(2-methylpyrazol-3-yl)-1,3,5-triazin-2-yl]piperidin-4-yl]methanone] | 1
7 | > 1140 | O=C1CCCN1c1ccnc(N2CCC(C(=O)N3OCC[C@H]3c3cncc(F)c3)CC2)n1 [Example 46, 1-[2-[4-[(3S)-3-(5-fluoropyridin-3-yl)-1,2-oxazolidine-2-carbonyl]piperidin-1-yl]pyrimidin-4-yl]pyrrolidin-2-one] | 18
8 | > 1140 | O=C1CCCCN1c1ccnc(N2CCC(C(=O)N3OCC[C@H]3c3cnccn3)CC2)n1 [Example 47, 1-[2-[4-[(3S)-3-pyrazin-2-yl-1,2-oxazolidine-2-carbonyl]piperidin-1-yl]pyrimidin-4-yl]piperidin-2-one] | 71
9 | > 1150 | Cc1cncc([C@@H]2CCON2C(=O)C2CCN(c3nccc(N4CCCC4=O)n3)CC2)c1 [Example 50, 1-[2-[4-[(3S)-3-(5-methylpyridin-3-yl)-1,2-oxazolidine-2-carbonyl]piperidin-1-yl]pyrimidin-4-yl]pyrrolidin-2-one] | 33
10 | > 1100 | Cc1ncc([C@@H]2CCON2C(=O)C2CCN(c3nccc(N4CCCC4=O)n3)CC2)cc1F [Example 56, 1-[2-[4-[(3S)-3-(5-fluoro-6-methylpyridin-3-yl)-1,2-oxazolidine-2-carbonyl]piperidin-1-yl]pyrimidin-4-yl]pyrrolidin-2-one] | 21
11 | 217 (≈ 104 µg/mL) | Cc1nc([C@@H]2CCON2C(=O)C2CCN(c3nccc(N4CCC(F)(F)C4=O)n3)CC2)cs1 [Example 59, 3,3-difluoro-1-[2-[4-[(3S)-3-(2-methyl-1,3-thiazol-4-yl)-1,2-oxazolidine-2-carbonyl]piperidin-1-yl]pyrimidin-4-yl]pyrrolidin-2-one] | 80
12 | 209 (≈ 95.5 µg/mL) | Cc1ncc([C@@H]2CCON2C(=O)C2CCN(c3nccc(N4CCOC4=O)n3)CC2)cc1F [Example 65, 3-[2-[4-[(3S)-3-(5-fluoro-6-methylpyridin-3-yl)-1,2-oxazolidine-2-carbonyl]piperidin-1-yl]pyrimidin-4-yl]-1,3-oxazolidin-2-one] | 6

Second part, the molecule before the results:

Row | Structure (SMILES) | solubility at 16 h (physchem) [µM] | IC50 (U937 cells) [nM]
13 | O=C(C1CCN(c2nccc(-c3ncco3)n2)CC1)N1OCC[C@H]1c1cnccn1 [Example 11, [1-(4-oxazol-2-ylpyrimidin-2-yl)-4-piperidyl]-[(3S)-3-pyrazin-2-ylisoxazolidin-2-yl]methanone] | > 2780 | 10
14 | O=C(C1CCN(c2ncc(F)c(-c3ncco3)n2)CC1)N1OCC[C@H]1c1cnccn1 [Example 12, [1-(5-fluoro-4-oxazol-2-yl-pyrimidin-2-yl)-4-piperidyl]-[(3S)-3-pyrazin-2-ylisoxazolidin-2-yl]methanone] | > 1180 | 1
15 | O=C(C1CCN(c2ncnc(-c3nccs3)n2)CC1)N1OCC[C@H]1c1cnccn1 [Example 14, [(3S)-3-pyrazin-2-ylisoxazolidin-2-yl]-[1-(4-thiazol-2-yl-1,3,5-triazin-2-yl)-4-piperidyl]methanone] | > 1180 | 9
16 | Cc1cnn(-c2nccc(N3CCC(C(=O)N4OCC[C@H]4c4ccc(C)nc4)CC3)n2)c1 [Example 16, [1-[2-(4-methylpyrazol-1-yl)pyrimidin-4-yl]-4-piperidyl]-[(3S)-3-(6-methyl-3-pyridyl)isoxazolidin-2-yl]methanone] | 169 (≈ 73.2 µg/mL) | 53
17 | Cc1ncc([C@@H]2CCON2C(=O)C2CCN(c3nccc(-n4ccnc4C)n3)CC2)cc1F [Example 20, [(3S)-3-(5-fluoro-6-methyl-3-pyridyl)isoxazolidin-2-yl]-[1-[4-(2-methylimidazol-1-yl)pyrimidin-2-yl]-4-piperidyl]methanone] | 21.4 (≈ 9.66 µg/mL) | 1
18 | Cc1ncc([C@@H]2CCON2C(=O)C2CCN(c3cc(-n4ccnc4C)ncn3)CC2)cc1F [Example 21, [(3S)-3-(5-fluoro-6-methyl-3-pyridyl)isoxazolidin-2-yl]-[1-[6-(2-methylimidazol-1-yl)pyrimidin-4-yl]-4-piperidyl]methanone] | > 1110 | 73
19 | Cc1nc([C@@H]2CCON2C(=O)C2CCN(c3ncnc(-n4ccnc4C)n3)CC2)cs1 [Example 23, [1-[4-(2-methylimidazol-1-yl)-1,3,5-triazin-2-yl]-4-piperidyl]-[(3S)-3-(2-methylthiazol-4-yl)isoxazolidin-2-yl]methanone] | > 1140 | 1
20 | Cn1nccc1-c1nccc(N2CCC(C(=O)N3OCC[C@H]3c3cnccn3)CC2)n1 [Example 24, [1-[2-(2-methylpyrazol-3-yl)pyrimidin-4-yl]-4-piperidyl]-[(3S)-3-pyrazin-2-ylisoxazolidin-2-yl]methanone] | > 1190 | 9
21 | O=C(C1CCN(c2nc(-c3cncnc3)ncc2F)CC1)N1OCC[C@H]1c1cnccn1 [Example 25, [1-(5-fluoro-2-pyrimidin-5-yl-pyrimidin-4-yl)-4-piperidyl]-[(3S)-3-pyrazin-2-ylisoxazolidin-2-yl]methanone] | 69.2 (≈ 30.2 µg/mL) | 15
22 | Cc1nccn1-c1nccc(N2CCC(C(=O)N3OCC[C@H]3c3cnccn3)CC2)n1 [Example 29, (S)-(1-(2-(2-methyl-1H-imidazol-1-yl)pyrimidin-4-yl)piperidin-4-yl)(3-(pyrazin-2-yl)isoxazolidin-2-yl)methanone] | > 1190 | 6
23 | Cc1ncc([C@@H]2CCON2C(=O)[C@@H]2CCN(c3cc(-c4ncnn4C)ncn3)CC23CC3)cc1F [Example 43, [(3S)-3-(5-fluoro-6-methylpyridin-3-yl)-1,2-oxazolidin-2-yl]-[(8R)-5-[6-(2-methyl-1,2,4-triazol-3-yl)pyrimidin-4-yl]-5-azaspiro[2.5]octan-8-yl]methanone] | > 1040 | 57
24 | Cc1ccc([C@@H]2CCON2C(=O)[C@@H]2CCN(c3nccc(N4CCCC4=O)n3)CC23CC3)cn1 [Example 44, 1-[2-[(8R)-8-[(3S)-3-(6-methylpyridin-3-yl)-1,2-oxazolidine-2-carbonyl]-5-azaspiro[2.5]octan-5-yl]pyrimidin-4-yl]pyrrolidin-2-one] | 380 (≈ 176 µg/mL) | 25
25 | Cc1ncc([C@@H]2CCON2C(=O)[C@@H]2CCN(c3ncnc(-c4ccnn4C)n3)CC23CC3)cc1F [Example 48, [(3S)-3-(5-fluoro-6-methylpyridin-3-yl)-1,2-oxazolidin-2-yl]-[(8R)-5-[4-(2-methylpyrazol-3-yl)-1,3,5-triazin-2-yl]-5-azaspiro[2.5]octan-8-yl]methanone] | 231 (≈ 111 µg/mL) | 3
26 | Cc1nc([C@@H]2CCON2C(=O)C2CCN(c3nccc(N4CCC5(CC5)C4=O)n3)CC2)cs1 [Example 52, 5-[2-[4-[(3S)-3-(2-methyl-1,3-thiazol-4-yl)-1,2-oxazolidine-2-carbonyl]piperidin-1-yl]pyrimidin-4-yl]-5-azaspiro[2.4]heptan-4-one] | 321 (≈ 151 µg/mL) | 24
27 | O=C(C1CCN(c2nccc(N3CCCC4(CC4)C3=O)n2)CC1)N1OCC[C@H]1c1cnccn1 [Example 57, 5-[2-[4-[(3S)-3-pyrazin-2-yl-1,2-oxazolidine-2-carbonyl]piperidin-1-yl]pyrimidin-4-yl]-5-azaspiro[2.5]octan-4-one] | > 1080 | 59
